Results on 20 compounds are retold here after patent US20220259212A1, “INHIBITORS OF INDOLEAMINE 2,3-DIOXYGENASE AND/OR TRYPTOPHAN 2,3-DIOXYGENASE” (Idorsia Pharmaceuticals Ltd, priority 2019, published 2022).

The target in assay [1] is T1, Recombinant full-length human IDO1 (Homo sapiens, UniProt P14902).
T1 construct: Recombinant full-length human IDO1 with a N-terminal hexahistidine tag; hexahistidine (N); made in house; host or cells: E. coli
Description: IDO1 enzymatic assay (NFK quantified by LCMS). It is filed as biochemical. Particulars: 2 nM enzyme, 5 μM L-tryptophan, 30 min pre-incubation, pH6.5; mean if measured multiple times; read-out: hIDO activity (IC50 in nM). The gist of the method:
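His-tagged full-length IDO1 (E. coli, 2 nM final) in pH 6.5 phosphate with ascorbate, methylene blue and catalase was preincubated 30 min at RT with compound (10 µM–0.5 nM, 0.6% DMSO), then run 30 min at RT with 5 µM L-Trp. NFK was measured by LCMS against a d5-Trp standard. IC50 came from a four-parameter fit of duplicates.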

Assay [2] addresses T2, Recombinant human TDO comprising amino acids 19-407 (Homo sapiens, UniProt P48775).
T2 construct: human TDO comprising amino acids 19-407; hexahistidine (N); made in house; host or cells: E. coli
Description: TDO2 enzymatic assay (NFK quantified by LCMS). It is filed as biochemical. Particulars: 15 nM enzyme, 200 μM L-tryptophan, 30 min pre-incubation, pH7; mean if measured multiple times; read-out: hTDO activity (IC50 in nM). The method, boiled down:
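E. coli-expressed N-terminal His-tagged TDO (15 nM) in pH 7 phosphate buffer with ascorbate and catalase, preincubated 30 min at RT with compound (10 μM to 0.5 nM, 0.6% DMSO). Reaction started with 200 μM L-tryptophan for 30 min at RT; NFK measured by LCMS against deuterated internal standard, IC50 by four-parameter fit, duplicates.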

Assay [3] deals with T3, IDO1 in SKOV3 cells (Homo sapiens, UniProt P14902).
T3 construct: SKOV3 cells (NCI, No. 0503405) which upregulate IDO1 after stimulation with IFNγ; host or cells: SKOV3 cells stimulated with IFNγ
The assay can be described thus: Cell-based IDO inhibitory activity in IFNγ-stimulated SKOV3 cells (NFK + kynurenine by LCMS). Particulars: IFNγ 50 ng/ml, 200 uM L-tryptophan, 24 hours. The gist of the method:
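SKOV3 cells (4000/well, pre-cultured 24 h) were treated with compound (10 uM-40 nM) plus 200 uM L-tryptophan and 50 ng/ml IFNγ for 24 h at 37° C. N-formylkynurenine plus kynurenine in supernatant was measured by LCMS against a d5-tryptophan internal standard. IC50 was fitted against 0.2% DMSO and reference-inhibitor controls, in duplicate, with repeat measurements averaged.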

Structures are written as SMILES.

T2 sequence (P48775 19-406 limits assumed): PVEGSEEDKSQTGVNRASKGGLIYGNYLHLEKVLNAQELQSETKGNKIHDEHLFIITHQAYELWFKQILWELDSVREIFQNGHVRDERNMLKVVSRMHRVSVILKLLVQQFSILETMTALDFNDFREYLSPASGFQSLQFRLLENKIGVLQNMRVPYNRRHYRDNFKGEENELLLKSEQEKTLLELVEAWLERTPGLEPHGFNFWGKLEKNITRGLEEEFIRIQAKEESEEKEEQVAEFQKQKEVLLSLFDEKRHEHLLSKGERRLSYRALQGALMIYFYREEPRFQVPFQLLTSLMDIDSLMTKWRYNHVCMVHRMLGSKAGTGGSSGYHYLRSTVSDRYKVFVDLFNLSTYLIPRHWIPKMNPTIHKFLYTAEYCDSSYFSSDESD
T1 sequence (P14902 whole entry): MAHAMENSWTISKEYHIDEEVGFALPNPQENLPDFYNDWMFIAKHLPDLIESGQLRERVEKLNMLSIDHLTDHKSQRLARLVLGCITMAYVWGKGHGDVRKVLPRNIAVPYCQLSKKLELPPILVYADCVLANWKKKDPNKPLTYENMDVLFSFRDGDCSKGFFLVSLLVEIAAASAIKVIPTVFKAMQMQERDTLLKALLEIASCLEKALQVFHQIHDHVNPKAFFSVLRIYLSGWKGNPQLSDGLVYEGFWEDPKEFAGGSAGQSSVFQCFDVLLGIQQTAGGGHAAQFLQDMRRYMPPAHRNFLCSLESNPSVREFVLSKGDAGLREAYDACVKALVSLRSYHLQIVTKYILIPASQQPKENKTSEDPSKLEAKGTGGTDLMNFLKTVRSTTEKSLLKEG
T3 sequence (P14902 whole entry): as above

A word on the IC50: it is the concentration needed to halve the response being measured. For the compound `Cc1c(C(O)c2c(Cl)ccc3cncn23)nnn1-c1ccc(O)c(F)c1` (racemic) [Example 48, rac-4-{4-[(6-Chloro-imidazo[1,5-a]pyridin-5-yl)-hydroxy-methyl]-5-methyl-[1,2,3]triazol-1-yl}-2-fluoro-phenol], the half-maximal inhibitory concentration (IC50) in assay [1] is 2.29 nM; in assay [2], 1460 nM; in assay [3] it was 29 nM.
The like results for `OC(c1ccn(-c2ccccc2)n1)c1c(Cl)ccc2cncn12` (racemic) [Ref2, rac-(6-Chloro-imidazo[1,5-a]pyridin-5-yl)-(1-phenyl-1H-pyrazol-3-yl)-methanol, reference compound] were, in that order, 433 nM, more than 10200 nM and 2940 nM.
`OC(c1cnn(-c2ccccc2)n1)c1c(Cl)ccc2cncn12` (racemic) [Ref3, rac-(6-Chloro-imidazo[1,5-a]pyridin-5-yl)-(2-phenyl-2H-[1,2,3]triazol-4-yl)-methanol, reference compound]: the concentration for half-maximal inhibition (IC50) in assay [1] was 161 nM; in assay [2], 8920 nM; in assay [3] it was more than 10000 nM.
The like results for `OC(c1ccc(-c2ccccc2)s1)c1c(Cl)ccc2cncn12` (racemic) [Ref4, rac-(6-Chloro-imidazo[1,5-a]pyridin-5-yl)-(5-phenyl-thiophen-2-yl)-methanol, reference compound] were, in that order, 275 nM, 8650 nM and 8830 nM.
The like results for `Oc1ccc(-n2cc(C(O)c3c(C4CC4)ccc4cncn34)nn2)cc1Cl` (single isomer, unassigned) [Example 7a] were, in that order, 2.12 nM, more than 10200 nM and 4.84 nM.
Turning to `O[C@@H](c1cn(-c2ccccc2)nn1)c1c(Cl)ccc2cncn12` [Example 1a, (R)-(6-Chloro-imidazo[1,5-a]pyridin-5-yl)-(1-phenyl-1H-[1,2,3]triazol-4-yl)-methanol], the values for the concentration for half-maximal inhibition (IC50) in assay [1], in assay [2] and in assay [3] were 5.07 nM, 9110 nM and 193 nM, respectively.
Regarding `Cc1ccc2cncn2c1[C@@H](O)c1cn(-c2ccccc2)nn1` [Example 2a, (R)-(6-Methyl-imidazo[1,5-a]pyridin-5-yl)-(1-phenyl-1H-[1,2,3]triazol-4-yl)-methanol], the figures for the IC50 in assay [1], in assay [2] and in assay [3] were 4.29 nM, more than 10200 nM and 84.9 nM, respectively.
On the same counts, the results for `O[C@@H](c1cn(-c2ccccc2)nn1)c1c(C2CC2)ncc2cncn12` [Example 3a, (R)-(6-Cyclopropyl-imidazo[1,5-a]pyrazin-5-yl)-(1-phenyl-1H-[1,2,3]triazol-4-yl)-methanol] are 16.7 nM, more than 10200 nM and 282 nM.
On to `Oc1ccc(-n2cc([C@@H](O)c3c(C4CC4)ccc4cncn34)nn2)cc1Cl` [Example 7b, 2-Chloro-4-{4-[(S)-(6-cyclopropyl-imidazo[1,5-a]pyridin-5-yl)-hydroxy-methyl]-[1,2,3]triazol-1-yl}-phenol], for which the IC50 is 361 nM in assay [1], more than 10200 nM in assay [2] and 703 nM in assay [3].
The like results for `COc1ccc(-n2cc([C@H](O)c3c(C4CC4)ccc4cncn34)nn2)cc1Cl` [Example 8a, (R)-[1-(3-Chloro-4-methoxy-phenyl)-1H-[1,2,3]triazol-4-yl]-(6-cyclopropyl-imidazo[1,5-a]pyridin-5-yl)-methanol] were, in that order, 9.85 nM, more than 10200 nM and 18.9 nM.
For `Oc1ccc(-n2cc([C@H](O)c3c(C4CC4)ncc4cncn34)nn2)cc1Cl` [Example 10a, 2-Chloro-4-{4-[(R)-(6-cyclopropyl-imidazo[1,5-a]pyrazin-5-yl)-hydroxy-methyl]-[1,2,3]triazol-1-yl}-phenol], the IC50 in assay [1] was 2.93 nM; in assay [2], more than 10200 nM; in assay [3], 12.5 nM.
The like results for `COc1ccc(-n2cc([C@H](O)c3c(C4CC4)ncc4cncn34)nn2)cc1Cl` [Example 11a, (R)-[1-(3-Chloro-4-methoxy-phenyl)-1H-[1,2,3]triazol-4-yl]-(6-cyclopropyl-imidazo[1,5-a]pyrazin-5-yl)-methanol] were, in that order, 8.17 nM, more than 10200 nM and 23.7 nM.
`COc1ccc(-n2nnc([C@H](O)c3c(Cl)ccc4cncn34)c2C)cc1` [Example 20a, (R)-(6-Chloro-imidazo[1,5-a]pyridin-5-yl)-[1-(4-methoxy-phenyl)-5-methyl-1H-[1,2,3]triazol-4-yl]-methanol]: the 50% inhibitory concentration (IC50) in assay [1] was 1.84 nM; in assay [2] it was 2190 nM; in assay [3], 10.7 nM.
Regarding `COc1ccc(-n2cc([C@H](O)c3c(C4CC4)ncc4cncn34)nn2)cc1F` [Example 21, (R)-(6-Cyclopropyl-imidazo[1,5-a]pyrazin-5-yl)-[1-(3-fluoro-4-methoxy-phenyl)-1H-[1,2,3]triazol-4-yl]-methanol], the figures for the concentration for half-maximal inhibition (IC50) in assay [1], in assay [2] and in assay [3] were 8.24 nM, more than 10200 nM and 33.2 nM, respectively.
The like results for `COc1cc(F)c(-n2cc([C@H](O)c3c(C4CC4)ncc4cncn34)nn2)cc1F` [Example 22, (R)-(6-Cyclopropyl-imidazo[1,5-a]pyrazin-5-yl)-[1-(2,5-difluoro-4-methoxy-phenyl)-1H-[1,2,3]triazol-4-yl]-methanol] were, in that order, 6.36 nM, more than 10200 nM and 20.2 nM.
The like results for `COCc1ccc(-n2cc([C@H](O)c3c(C4CC4)ncc4cncn34)nn2)cc1` [Example 24, (R)-(6-Cyclopropyl-imidazo[1,5-a]pyrazin-5-yl)-[1-(4-methoxymethyl-phenyl)-1H-[1,2,3]triazol-4-yl]-methanol] were, in that order, 8.36 nM, more than 10200 nM and 399 nM.
On the same counts, the results for `COc1cc(F)c(-n2cc([C@H](O)c3c(C4CC4)ncc4cncn34)nn2)cc1Cl` [Example 25, (R)-[1-(5-Chloro-2-fluoro-4-methoxy-phenyl)-1H-[1,2,3]triazol-4-yl]-(6-cyclopropyl-imidazo[1,5-a]pyrazin-5-yl)-methanol] are 5.86 nM, more than 10200 nM and 33 nM.
Turning to `COc1c(F)cc(-n2cc([C@H](O)c3c(C4CC4)ncc4cncn34)nn2)cc1Cl` [Example 26, (R)-[1-(3-Chloro-5-fluoro-4-methoxy-phenyl)-1H-[1,2,3]triazol-4-yl]-(6-cyclopropyl-imidazo[1,5-a]pyrazin-5-yl)-methanol], the half-inhibitory concentration (IC50) in assay [1] was 4.5 nM; in assay [2], more than 10200 nM; in assay [3], 74.3 nM.
The like results for `Oc1ccc(-n2cc([C@H](O)c3c(C4CC4)ncc4cncn34)nn2)cc1F` [Example 27, 4-{4-[(R)-(6-Cyclopropyl-imidazo[1,5-a]pyrazin-5-yl)-hydroxy-methyl]-[1,2,3]triazol-1-yl}-2-fluoro-phenol] were, in that order, 5.6 nM, more than 10200 nM and 47.4 nM.
On the same counts, the results for `O[C@@H](c1cn(-c2ccc(OCC3(F)COC3)c(F)c2)nn1)c1c(C2CC2)ncc2cncn12` [Example 28, (R)-(6-Cyclopropyl-imidazo[1,5-a]pyrazin-5-yl)-{1-[3-fluoro-4-(3-fluoro-oxetan-3-ylmethoxy)-phenyl]-1H-[1,2,3]triazol-4-yl}-methanol] are 6.28 nM, more than 10200 nM and 19.5 nM.
